Patent US3949075A, “Anti-microbial compounds of 2', 4' substituted anilides of substituted nitrosalicylic acid for quadruped animals” (Ferro Corporation, priority 1974, dated 1976)
Where two headings read alike, the source gives them in different places.

Assays:
sheep = experiment: Tolerance / toxicity in sheep; type: in vivo; set-up: key to Tolerance at 100 mg/kg / Tolerance at 50 mg/kg: "toxic" refers to death of sheep resulting from the use of the indicated compound at the indicated dosage; key to Tolerance: Tol.: tolerated; Tox.: toxic; Sym.: symptoms of toxic reaction
Method: (§1) The results of tests on sheep in a manner described, supra, using compounds of the present invention are given in Table 1, Examples 5 through 13. The numbers in the column headed "Haemonchus (15 mg/kg)" refer to the percent of parasites destroyed or expelled when the indicated compound was introduced into the rumen of sheep at a dosage of 15 milligrams per kilogram of body weight. The values under "Tolerance (mg/kg)" refer to the highest test dosage in the milligrams of anthelmintic per kilogram of body weight at which the sheep developed no toxic symptoms. "Tol." is an abbreviation for "tolerated". The symbols R1 and R2 refer to those of Formula I in these and other following examples.
(§2) The importance of the 2',4' substitution on the anilide moiety of Formula I is illustrated by the case of the dichloro substitution as summarized in Table III. […] This has been mentioned briefly hereinabove. As used herein, "toxic" refers to death of sheep resulting from the use of the indicated compound at the indicated dosage.
(§3) The data of the tables were generated using procedures previously described. The compounds tested are disubstituted and, except for Example 50 which is dibromo, are dichloro. Where the position for the substituents is other than 2' and 4', it is indicated. Under the indicated microorganisms, the values given in this and the following tables, should be read as: percentage of microorganism killed/dose in milligrams per kilogram of body weight. Under "Tolerance", the term "Tol." means "tolerated", "Tox." means "toxic", and "Sym." means "symptoms of toxic reaction", all at the dosage value which follows. It will be appreciated that there is no sharp toxicity end point in determining toxicity to living sheep.

[1] = Tolerance / toxicity in sheep; type: in vivo; set-up: key to Tolerance at 100 mg/kg / Tolerance at 50 mg/kg: "toxic" refers to death of sheep resulting from the use of the indicated compound at the indicated dosage; key to Tolerance: Tol.: tolerated; Tox.: toxic; Sym.: symptoms of toxic reaction; conditions: in vivo, Table 1, read-out: Tolerance, highest test dosage at which the sheep developed no toxic symptoms
Method: as §1, §2, §3

Fasciola hepatica = experiment: Test for activity against liver flukes, Fasciola hepatica, in infected sheep; type: in vivo; conditions: for inhibition in vivo at 1 mg/kg: Tables VIII and X
Method: (§4) Test for activity against liver flukes were conducted as follows:
(§5) Eggs of Fasciola hepatica were collected from the bile of donor sheep. The eggs were embryonated and snails were infected (the genus Lymnaea serves as intermediate host) to produce Metacercariae which are the infective forms for sheep. Each sheep was infected with 250 metacercariae intraruminally. When the infection became patent in ca. 80 days, egg counts were carried out to determine the degree of worm burden. The liver was processed to recover F. hepatica in the untreated and treated sheep.
as §3

[2] = tested on: Haemonchus and Fasciola hepatica; experiment: Dual activity against Haemonchus and Fasciola in sheep and therapeutic ratio; type: in vivo; conditions: sheep; for overall activity ranking, in words: Table X; for dual activity relative to other isomers, in words: Table IX, listed as methyl 2'
Haemonchus contortus = experiment: Percent of Haemonchus destroyed or expelled in infected sheep (egg count after treatment); type: in vivo, Haemonchus contortus (in sheep); conditions: for Haemonchus (2 mg/kg), percent of parasites destroyed or expelled / Haemonchus (5 mg/kg), percent of parasites destroyed or expelled / Haemonchus (15 mg/kg), percent of parasites destroyed or expelled: into rumen, Table 1
Method: Two groups of sheep were used in the tests. One group was used as a non-medicated control, while the other group was treated with the compound under investigation. Helminth-free young lambs were infected with about 10,000 filariform larvae of Haemonchus contortus. In three weeks when the infection became apparent, egg counts were made to determine the density of the worm burden.
The egg count was carried out using the following modified Stoll method. Three grams of sheep feces were taken rectally from each animal and placed in a Stoll flask. To each flask, tap water was added to the top line. The fecal pellets were too hard to break down, the flasks were closed with rubber stoppers and kept in the refrigerator for several hours. The flasks were thoroughly shaken and a 1 ml. sample was drawn from the middle using a wide mouth pipette. This 1 ml. sample was transferred to an 8 ml. plastic tube, to which enough saturated sodium chloride solution was added to reach the rim. The tubes were then centrifuged for 10 minutes at 1500 r.p.m. Then sodium chloride solution was added with a medicine dropper forming a concave miniscus. A cover glass was carefully added and the tubes were kept in a refrigerator for ten to twenty minutes. During that period, the nematode ova flowed upward and adhered to the bottom of the cover glass slip. At the end of the 20-minute period, the cover slip was carefully detached from the miniscus and transferred to a microscopic slide. The ova were then counted under a microscope equipped with 10X ocular and 10X objective lens. Each ovum under the microscope represented 20 ova in the sample.
Animals with sufficiently high egg counts were taken out of the pool and housed in experimental pens. Since the salicylanilides of the present invention are water insoluble, the compounds were first ground using a mortar and pestle and then were placed in a carboxymethyl cellulose solution. The particles were further micronized ultrasonically. The compound was then administered to two or three animals by Oesophageal gavage. Control, untreated animals, received only the carboxymethyl cellulose solution in a similar manner. On the sixth and seventh day after treatment, fecal pellets were taken from the rectum of the control as well as the treated animals and egg counts were made.
as §1, §3

[3] = tested on: liver flukes of the genus Fasciola; experiment: Utility against liver flukes of the genus Fasciola in sheep (oral); type: in vivo; conditions: for effect against liver flukes: 15 mg/kg
Method: as §4, §5
The compounds of this invention also have utility against liver flukes.

[4] = Fasciola hepatica, sheep, read-out: Fasciola hepatica, percentage of microorganism killed
[5] = Fasciola hepatica, sheep, 2 mg/kg, Tables VIII-XI, read-out: Fasciola hepatica, percentage of microorganism killed
[6] = Haemonchus contortus, sheep, Tables VIII-XI, read-out: Haemonchus, percentage of microorganism killed
[7] = Haemonchus contortus, sheep, 5 mg/kg, Tables VIII-XI, read-out: Haemonchus, percentage of microorganism killed
[8] = Haemonchus contortus, sheep, 15 mg/kg, Tables VIII-XI, read-out: Haemonchus, percentage of microorganism killed
[9] = Fasciola hepatica, sheep, 15 mg/kg, Tables VIII-XI, read-out: Fasciola hepatica, percentage of microorganism killed
[10] = Haemonchus contortus, iv, sheep, 15 mg/kg, Tables III and IV, read-out: Effectiveness (%) at 15 mg/kg
[11] = Fasciola hepatica, sheep, Tables VIII-XI, read-out: Fasciola hepatica, percentage of microorganism killed
[12] = Fasciola hepatica, read-out: Fasciola hepatica, percentage of microorganism killed
[13] = sheep, 5 mg/kg, Tables III and IV

| SMILES | Tolerance (sheep; 25 mg./kg., Tables IX, X) | Tolerance (sheep; 50 mg./kg., Tables VIII-X) | NOAEL [1] [mg/kg] | inhibition in vivo at 1 mg/kg (Fasciola hepatica; [4]) [%] | inhibition in vivo at 2 mg/kg (Fasciola hepatica; [5]) [%] | overall activity ranking, in words [2] | inhibition in vivo at 2 mg/kg (Haemonchus contortus; [6]) [%] | inhibition in vivo at 5 mg/kg (Haemonchus contortus; [7]) [%] | inhibition in vivo at 15 mg/kg (Haemonchus contortus; [8]) [%] | Haemonchus (2 mg/kg), percent of parasites destroyed or expelled (Haemonchus contortus; sheep) [%] | Haemonchus (5 mg/kg), percent of parasites destroyed or expelled (Haemonchus contortus; sheep, 5 mg/kg) [%] | Haemonchus (15 mg/kg), percent of parasites destroyed or expelled (Haemonchus contortus; sheep, 15 mg/kg) [%] | Tolerance at 50 mg/kg (sheep; 50 mg/kg, Tables III and IV) | inhibition in vivo at 15 mg/kg (Fasciola hepatica; [9]) [%] | inhibition in vivo at 15 mg/kg (Haemonchus contortus; [10]) [%] | effect against liver flukes [3] | inhibition in vivo at 5 mg/kg (Fasciola hepatica; [11]) [%] | Effectiveness (%) at 5 mg/kg (Haemonchus contortus; [13]) [%] | also measured |
| --- | --- | --- | --- | --- | --- | --- | --- | --- | --- | --- | --- | --- | --- | --- | --- | --- | --- | --- | --- |
| Cc1c([N+](=O)[O-])cc(C(C)(C)C)c(O)c1C(=O)Nc1ccc(Cl)cc1C(F)(F)F [Example 13] | Tox. | Tox. | ≥ 15 | 100 | 100 | most active compounds of the invention | 96 | 91 | 100 | 96 | 91 | 100 | – | – | – | – | – | – | Tolerance (sheep; 15 mg./kg., Tables VIII, X): Tol.; inhibition in vivo at 1 mg/kg (Haemonchus contortus; Haemonchus contortus, sheep, 1 mg/kg, Table X, read-out: Haemonchus, percentage of microorganism killed): 76% |
| Cc1c(Cl)cccc1NC(=O)c1c(C)c([N+](=O)[O-])cc(C(C)(C)C)c1O [Example 28, 3-tert. butyl-3'-chloro 2', 6-dimethyl-5-nitrosalicylanilide] | – | Tox. | – | – | – | – | – | – | 87 | – | – | – | toxic | 0 | 87 | ineffective against liver flukes | – | – | – |
| Cc1c([N+](=O)[O-])cc(C(C)(C)C)c(O)c1C(=O)Nc1ccc(Br)cc1C(F)(F)F [Example 11] | – | – | ≥ 20 | 100 | 100 | most active compounds of the invention | 99.8 | 100 | – | 99.8 | 100 | – | – | – | – | – | 100 | – | Tolerance (sheep; 20 mg./kg., Table X): Tol.; Tolerance (sheep; 35 mg./kg., Table X): Tol.; Tolerance, highest test dosage at which the sheep developed no toxic symptoms (sheep; Table 1, listed as 12): ≥ 35 mg/kg; inhibition in vivo at 0.5 mg/kg (Fasciola hepatica; Fasciola hepatica, sheep, 0.5 mg/kg, Table X, read-out: Fasciola hepatica, percentage of microorganism killed): 97% |
| Cc1cc(Cl)ccc1NC(=O)c1c(C)c([N+](=O)[O-])cc(C(C)(C)C)c1O [Example 6, 3-tert. butyl-4'-chloro-2', 6-dimethyl-5-nitrosalicylanilide] | Tol. | Sym. | 50 to 100 | – | – | – | 67 | – | 100 | 67 | – | 100 | non toxic | – | 100 | – | 100 | 95 | Tolerance (sheep; 100 mg./kg., Tables VIII, IX): Tox.; Tolerance at 100 mg/kg (sheep; 100 mg/kg, Tables III and IV): toxic; inhibition in vivo at 2 mg/kg (Fasciola hepatica; [12]): 0%; dual activity relative to other isomers, in words ([2]; chloro 4' compound): much greater dual activity; dual activity relative to other isomers, in words ([2]; chloro 4' isomer): very active at doses well below those at which other isomers are inactive; inhibition in vivo at 5 mg/kg (Haemonchus contortus; Haemonchus contortus, read-out: Haemonchus, percentage of microorganism killed, sheep, 5 mg/kg, Tables VIII-XI): 99%; activity against Haemonchus relative to other isomers, in words (Haemonchus contortus; sheep): greater activity against Haemonchus; Effectiveness at 15 mg/kg against Haemonchus (Haemonchus contortus; sheep, 15 mg/kg, Table VI): 100%; effective in killing or expelling Haemonchus (Haemonchus contortus; sheep, dose not given): 100%; effect against (mature) liver flukes ([3]; oral, 5 mg/kg, within three days): The same effects against mature flukes |
| Cc1c([N+](=O)[O-])cc(C(C)(C)C)c(O)c1C(=O)Nc1ccc(C(F)(F)F)cc1 [Example 10, 3-tert. butyl-6-methyl-5-nitro-4'-trifluoromethylsalicylanilide] | – | – | 15 to 50 | – | – | – | – | – | 100 | – | – | 100 | – | 100 | – | efficacious | – | – | inhibition in vivo at 15 mg/kg (Haemonchus contortus; Haemonchus contortus, sheep, 15 mg/kg, Table V, read-out: Effectiveness at 15 mg/kg against Haemonchus): 100% |
| Cc1c([N+](=O)[O-])cc(C(C)(C)C)c(O)c1C(=O)Nc1cc(Cl)ccc1Cl [Example 24, reference compound] | – | Tol. | – | – | – | – | – | 61 | – | – | – | – | toxic | – | 100 | – | 0 | 61 | toxic effects at 50 mg./kg. (sheep; 50 mg/kg): shows toxic effects; inhibition in vivo at 15 mg/kg (Fasciola hepatica; [12]): 100%; activity against Fasciola, in words (Fasciola hepatica; sheep): no activity; clinical effectiveness against either parasite, in words ([2]; 5 mg./kg.): would not be clinically effective against either parasite; inhibition in vivo at 15 mg/kg (Haemonchus contortus; Haemonchus contortus, read-out: Haemonchus, percentage of microorganism killed, sheep, 15 mg/kg, Tables VIII-XI): 100%; activity at 5 mg./kg. (Haemonchus contortus; sheep, 5 mg/kg): 61% |
